Test results published in patent US10639304B2, “Kinase inhibitors” (priority 2013, dated 2020).

Assays:
[1] = test system: leukemic cells derived from ALL, AML, CML and CLL; assay: Initial analysis of cytotoxicity in leukemic cells; assay type: cell-based; settings: for toxicity to the leukemic cells tested: initial analysis of 12 compounds ALD-1 through ALD-12; for anti-leukemic activity: structure-activity summary
Procedure: (§1) The cells were seeded at an initial density of 50,000 cells per well in 100 μl of cell culture media constituted with or without drugs at increasing doses ranging from 1 to 10^7 fold. The assays were performed in 96-well cell culture plates which were maintained at 37° C. in 5% CO2 atmosphere for 24 h, 48 h, 72 h and 96 h. At the end of each incubation point; cell viability was measured by Cell Titer-Blue® Assay. The measurements were then expressed as the percentage of viable cells compared to the survival of respective control groups (untreated cells) defined as the maximum cell viability. The data obtained was further analyzed using Prism nonlinear regression software (Graphpad Software) for the curve-fitting and determination of IC50 values.

[2] = test system: Gleevec resistant K562 cells; assay: Cytotoxicity in Gleevec resistant K562 cells (Cell Titer-Blue); assay type: cell-based; settings: for IC50: Homo sapiens, K562
Procedure: Hela (established from epithelioid cervical carcinoma), were purchased from the American Type Culture Collection (ATCC, Manassas, Va.). SN12C and ACHN cells were provided by Dr. Charles Sawyers. […] Normal lymphocyte 9093 was purchased from ATCC. K562 and normal lymphocytes were maintained in RPMI media (Life Technologies) supplemented with 20% fetal bovine serum (FBS). […] All cells were maintained at 37° C. under a humidified atmosphere of 95% air and 5% CO2.
as §1

Src = target: T1, Src (Homo sapiens, UniProt P12931); assay: Src phosphorylation in K562 cells, Western blotting; assay type: cell-based; settings: FIGS. 9 and 10
T1 construct: reduced the levels of phosphorylated Src in K562 cells; endogenous in cells; host or cells: K562

T315I mutant Bcr-Abl = target: T2, T315I mutant Bcr-Abl (Homo sapiens, UniProt P00519, T315I); assay: Bcr-Abl phosphorylation in K562 cells, Western blotting; assay type: cell-based; settings: in the presence of Gleevec, FIGS. 5 and 6
T2 construct: K562 cells that express the T315I mutant Bcr-Abl; BCR (fusion partner, P11274 N-terminal part); endogenous in cells; host or cells: K562 (Gleevec-resistant); the other entry of the earlier key: BCR (P11274, Breakpoint cluster region protein)

Lyn = target: T3, Lyn (Homo sapiens, UniProt P07948); assay: Lyn phosphorylation in K562 cells, Western blotting; assay type: cell-based; settings: FIG. 11
T3 construct: K562 cells were plated in 10 cm dishes; endogenous in cells; host or cells: K562

Yes = target: T4, Yes (Homo sapiens, UniProt P07947); assay: Yes phosphorylation in K562 cells, Western blotting; assay type: cell-based; settings: FIG. 11
T4 construct: K562 cells were plated in 10 cm dishes; endogenous in cells; host or cells: K562

LCK = target: T5, LCK (Homo sapiens, UniProt P06239); assay: LCK phosphorylation in K562 cells, Western blotting; assay type: cell-based; settings: FIG. 11
T5 construct: K562 cells were plated in 10 cm dishes; endogenous in cells; host or cells: K562

Crkl = Crkl phosphorylation in K562 cells, Western blotting; assay type: cell-based; settings: FIG. 8
STAT5 = STAT5 phosphorylation in K562 cells, Western blotting; assay type: cell-based; settings: FIG. 7
[3] = test system: PARP cleavage in Gleevec-resistant CML cell lines; assay: PARP cleavage (apoptosis marker), Western blotting; assay type: cell-based; settings: FIG. 4
[4] = test system: BV173-GFP, a Gleevec resistant chronic myeloid leukemic cells; assay: Preclinical efficacy, BV173-GFP leukemia in NSG-B2m mice; assay type: in vivo; settings: up to 250 mg/kg intraperitoneal for 5 weeks
Procedure: Two days after leukemia cell injection, the mice received intraperitoneal treatments of DMSO, or ALD-10 in DMSO. Following injection cells, the mice were randomized into two groups (6/group) to receive DMSO, or ALD-10. The mice received up to 250 mg/kg of ALD10 for 5 weeks. […] The median survival for ALD-10 and DMSO treated mice was 42 and 39 days, respectively.

Bcr-Abl = settings: in vitro, more potent than imatinib; cited from earlier work

T3 sequence (P07948 whole entry): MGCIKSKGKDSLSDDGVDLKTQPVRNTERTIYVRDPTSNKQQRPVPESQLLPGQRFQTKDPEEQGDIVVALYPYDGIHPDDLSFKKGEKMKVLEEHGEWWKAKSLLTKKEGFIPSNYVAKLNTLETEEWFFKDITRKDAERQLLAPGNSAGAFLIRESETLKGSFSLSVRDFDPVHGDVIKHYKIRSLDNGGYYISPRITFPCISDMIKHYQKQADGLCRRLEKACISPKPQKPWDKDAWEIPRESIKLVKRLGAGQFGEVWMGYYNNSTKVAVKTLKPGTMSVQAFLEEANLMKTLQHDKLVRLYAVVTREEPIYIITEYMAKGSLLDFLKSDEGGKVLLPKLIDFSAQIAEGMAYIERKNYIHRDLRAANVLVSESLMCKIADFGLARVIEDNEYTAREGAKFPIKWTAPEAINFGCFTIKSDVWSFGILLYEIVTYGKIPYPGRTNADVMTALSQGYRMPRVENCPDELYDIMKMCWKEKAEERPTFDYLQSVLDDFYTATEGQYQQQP
T1 sequence (P12931 whole entry): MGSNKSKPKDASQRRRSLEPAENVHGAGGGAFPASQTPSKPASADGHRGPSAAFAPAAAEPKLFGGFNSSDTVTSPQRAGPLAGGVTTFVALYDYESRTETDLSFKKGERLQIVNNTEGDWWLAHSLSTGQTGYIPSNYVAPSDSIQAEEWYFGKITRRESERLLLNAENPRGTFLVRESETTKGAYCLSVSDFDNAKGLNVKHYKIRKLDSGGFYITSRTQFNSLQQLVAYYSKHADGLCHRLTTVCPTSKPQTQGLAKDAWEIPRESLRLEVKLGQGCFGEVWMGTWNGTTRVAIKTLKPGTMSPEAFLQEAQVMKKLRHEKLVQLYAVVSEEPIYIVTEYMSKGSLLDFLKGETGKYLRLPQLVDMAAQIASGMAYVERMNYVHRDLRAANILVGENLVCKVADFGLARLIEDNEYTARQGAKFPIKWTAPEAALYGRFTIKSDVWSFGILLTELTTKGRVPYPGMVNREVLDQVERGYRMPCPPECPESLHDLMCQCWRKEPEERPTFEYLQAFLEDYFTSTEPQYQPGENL
T5 sequence (P06239 whole entry): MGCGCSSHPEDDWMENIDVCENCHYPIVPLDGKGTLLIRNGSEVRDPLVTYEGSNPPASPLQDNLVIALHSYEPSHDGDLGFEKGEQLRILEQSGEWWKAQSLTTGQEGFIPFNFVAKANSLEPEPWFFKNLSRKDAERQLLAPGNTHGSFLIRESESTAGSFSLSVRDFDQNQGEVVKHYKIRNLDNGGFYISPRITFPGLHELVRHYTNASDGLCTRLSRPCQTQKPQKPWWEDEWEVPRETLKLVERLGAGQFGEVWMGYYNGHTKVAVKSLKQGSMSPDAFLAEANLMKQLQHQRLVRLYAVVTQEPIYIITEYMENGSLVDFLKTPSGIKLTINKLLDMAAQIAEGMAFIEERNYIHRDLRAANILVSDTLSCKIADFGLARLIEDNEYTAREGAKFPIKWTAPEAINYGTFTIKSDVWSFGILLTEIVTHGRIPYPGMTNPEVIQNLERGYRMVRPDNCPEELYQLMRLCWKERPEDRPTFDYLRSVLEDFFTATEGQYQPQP
T4 sequence (P07947 whole entry): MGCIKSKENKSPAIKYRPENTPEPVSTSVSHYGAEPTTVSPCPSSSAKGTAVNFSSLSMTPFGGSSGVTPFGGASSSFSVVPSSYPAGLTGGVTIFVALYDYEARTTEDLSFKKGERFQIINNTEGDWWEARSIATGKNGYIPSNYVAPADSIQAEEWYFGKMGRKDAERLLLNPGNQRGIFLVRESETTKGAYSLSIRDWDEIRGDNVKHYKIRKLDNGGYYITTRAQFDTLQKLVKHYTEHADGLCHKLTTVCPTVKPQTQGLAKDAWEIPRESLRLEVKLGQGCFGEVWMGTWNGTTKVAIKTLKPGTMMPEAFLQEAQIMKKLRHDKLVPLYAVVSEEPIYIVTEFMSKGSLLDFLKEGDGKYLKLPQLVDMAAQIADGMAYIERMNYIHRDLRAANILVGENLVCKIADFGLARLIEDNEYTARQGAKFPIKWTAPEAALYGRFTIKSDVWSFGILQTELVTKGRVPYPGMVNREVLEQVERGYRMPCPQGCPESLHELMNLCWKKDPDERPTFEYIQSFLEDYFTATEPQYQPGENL

Compound	toxicity to the leukemic cells tested [1]	cytotoxicity to Gleevec resistant CML (GRCML) ([2]; Gleevec resistant CML, cell line not named)	anti-leukemic activity [1]	phosphorylation of Src (Src)	phosphorylation of Bcr-Abl Kinase (T315I mutant Bcr-Abl)	IC50 [2]	phosphorylation of Lyn (Lyn)	phosphorylation of Yes (Yes)	phosphorylation of Lck (LCK)	CrkL phosphorylation (Crkl)	STAT5 phosphorylation (STAT5)	PARP cleavage (apoptotic cell death) [3]	activity of the mice compared to DMSO treated mice [4]	liver tumor mass compared to DMSO treated mice [4]	median survival ([4]; DMSO 39 days, Log-rank P=0.0036, Gehan-Breslow-Wilcoxon P=0.0045)	survival (Kaplan-Meier) ([4]; DMSO treated 40 days)	cytotoxicity (in words) ([2]; Gleevec resistant K562 cells, FIG. 1)	affinity for the ATP binding site on Bcr-Abl relative to imatinib (Bcr-Abl)
COC(=O)c1ccc(NC(=O)CSc2nc3cc4c(cc3cc2C)OCCO4)cc1 [ALD-1, 4-[2-(8-Methyl-2,3-dihydro-[1,4]dioxino[2,3-g]quinolin-7-ylsulfanyl)-acetylamino]-benzoic acid methyl ester]	non-toxic	–	–	–	–	–	–	–	–	–	–	–	–	–	–	–	–	–
CCc1cc2cc3c(cc2nc1SCC(=O)Nc1ccc(OC)cc1OC)OCCO3 [ALD-4, N-(2,4-Dimethoxy-phenyl)-2-(8-ethyl-2,3-dihydro-[1,4]dioxino[2,3-g]quinolin-7-ylsulfanyl)-acetamide]	toxic	highly cytotoxic	anti-leukemic activity	inhibited	block phosphorylation	–	–	–	–	–	–	–	–	–	–	–	–	–
CCc1cc2cc3c(cc2nc1SCC(=O)Nc1ccccc1C)OCCO3 [ALD-10, 2-(8-Ethyl-2,3-dihydro-[1,4]dioxino[2,3-g]quinolin-7-ylsulfanyl)-N-o-tolyl-acetamide]	toxic	–	anti-leukemic activity	inhibited	block phosphorylation	74.6 nM	significantly inhibited	significantly inhibited	significantly inhibited	inhibited	inhibited	induction of PARP cleavage	considerably more active	reduced liver tumor mass	42 days	48 days	–	–
CCc1cc2cc3c(cc2nc1SCC(=O)Nc1ccc(OC)cc1)OCCO3 [ALD-11, 2-(8-Ethyl-2,3-dihydro-[1,4]dioxino[2,3-g]quinolin-7-ylsulfanyl)-N-(4-methoxy-phenyl)-acetamide]	non-toxic	–	inactive	did not affect	–	–	not	–	not	did not affect	did not affect	did not reveal PARP cleavage	–	–	–	–	not cytotoxic	–
CCc1cc2cc3c(cc2nc1SCC(=O)Nc1ccccc1OC)OCCO3 [ALD-12, 2-(8-ethyl-2,3-dihydro-[1,4]dioxino[2,3-g]quinolin-7-ylsulfanyl)-N-(2-methoxy-phenyl)-acetamide]	toxic	–	anti-leukemic activity	inhibited	block phosphorylation	69.7 nM	significantly inhibited	significantly inhibited	significantly inhibited	inhibited	inhibited	induction of PARP cleavage	–	–	–	–	–	–
Cc1cn(-c2cc(NC(=O)c3ccc(C)c(Nc4nccc(-c5cccnc5)n4)c3)cc(C(F)(F)F)c2)cn1 [Nilotinib]	–	–	–	–	–	–	–	–	–	–	–	–	–	–	–	–	–	up to 50 times
